The values below come from patent US20190374533A1, “COMPOUNDS AND METHODS FOR INHIBITING NHE-MEDIATED ANTIPORT IN THE TREATMENT OF DISORDERS ASSOCIATED WITH FLUID RETENTION OR SALT OVERLOAD AND GASTROINTESTINAL TRACT DISORDERS” (Ardelyx, Inc., priority 2008, published 2019).

Data set [1] is described as follows: Parallel artificial membrane permeability assay (PAMPA). The settings on record: pH 7.4. A general note: In PAMPA a lipid-coated filter parts donor from acceptor wells.
Data set [2] in a line: Determination of compound Cmax and AUC. Format: in vivo. The following applies: rat; Sprague-Dawley rats, oral gavage, serum 0.5-4 h; actual oral dose (mg/kg) given. The protocol: Sprague-Dawley rats were orally gavaged with test article (2.5 mg/kg) and serum was collected at 0.5, 1, 2 and 4 h. Serum samples were treated with acetonitrile, precipitated proteins removed by centrifugation and supernatants analyzed by LC/MS/MS and compared against a standard curve to determine compound concentration. All compounds were orally dosed at the dosage shown, and pharmacokinetic parameters determined as described in the text.

Another data set deals with T1, rat NHE-3 (Rattus norvegicus, UniProt P26433).
T1 construct: expressed in transfected cells; host or cells: Opossum kidney (OK) cells (ATCC), electroporated
The data set is described as follows: Cell-based assay of NHE-3 activity (Pharmacological Test Example 1). The gist of the method:
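Na+-dependent H+ exchange tracked with the pH-sensitive dye BCECF in opossum kidney cells transiently expressing rat NHE-3. Intracellular acidification by NH4Cl prepulse, then 10 min in ammonium- and Na+-free HEPES, pH 7.4, room temperature. Initial rates averaged over 3-6 replicates give pIC50.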

[3] abbreviates: OK cells expressing rat NHE-3, 0-30 uM test compound, 5 uM EIPA.

Where two headings read alike, the source gives them in different places.

T1 sequence (P26433 29-831): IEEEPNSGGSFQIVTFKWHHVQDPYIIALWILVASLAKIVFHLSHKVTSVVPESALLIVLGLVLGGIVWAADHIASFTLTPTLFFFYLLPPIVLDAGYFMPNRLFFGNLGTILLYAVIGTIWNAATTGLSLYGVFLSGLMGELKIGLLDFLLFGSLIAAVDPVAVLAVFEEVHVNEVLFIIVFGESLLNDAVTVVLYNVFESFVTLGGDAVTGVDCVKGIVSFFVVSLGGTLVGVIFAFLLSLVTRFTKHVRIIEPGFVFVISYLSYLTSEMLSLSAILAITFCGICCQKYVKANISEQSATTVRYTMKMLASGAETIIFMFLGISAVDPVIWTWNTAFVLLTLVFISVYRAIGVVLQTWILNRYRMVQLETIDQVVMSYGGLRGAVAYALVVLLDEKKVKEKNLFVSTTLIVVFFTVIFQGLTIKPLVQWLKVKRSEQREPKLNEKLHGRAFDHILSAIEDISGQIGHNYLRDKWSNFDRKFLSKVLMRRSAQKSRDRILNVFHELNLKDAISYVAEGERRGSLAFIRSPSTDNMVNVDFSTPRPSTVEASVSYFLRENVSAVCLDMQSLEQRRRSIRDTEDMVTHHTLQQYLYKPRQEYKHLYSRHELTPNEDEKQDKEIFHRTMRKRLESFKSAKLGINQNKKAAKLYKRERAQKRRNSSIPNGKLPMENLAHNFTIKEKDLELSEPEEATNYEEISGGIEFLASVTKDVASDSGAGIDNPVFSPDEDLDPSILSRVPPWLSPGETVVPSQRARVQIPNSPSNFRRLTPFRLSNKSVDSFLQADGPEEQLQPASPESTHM

The term Papp A→B denotes how fast a substance crosses the layer from the apical side. Lower therefore signals slow passage. As to `CN1Cc2c(Cl)cc(Cl)cc2C(c2ccc(NC(=O)N[C@@H](CC(=O)O)C(=O)O)cc2)C1` (stereo partly drawn) [Example 34, (2S)-2-(3-(4-(6,8-dichloro-2-methyl-1,2,3,4-tetrahydroisoquinolin-4-yl)phenyl)ureido)succinic acid], the Papp A→B at 3 h, 20 uM in data set [1] stood at 0.2 ×10⁻⁶ cm/s.
Same read-out and setting: to `CN1Cc2c(Cl)cc(Cl)cc2C(c2ccc(S(=O)(=O)NCCN(CCNS(=O)(=O)c3ccc(C4CN(C)Cc5c(Cl)cc(Cl)cc54)cc3)CCNS(=O)(=O)c3ccc(C4CN(C)Cc5c(Cl)cc(Cl)cc54)cc3)cc2)C1` (centres unmarked) [Example 24, N,N′,N″-(2,2′,2″-nitrilotris(ethane-2,1-diyl))tris(4-(6,8-dichloro-2-methyl-1,2,3,4-tetrahydroisoquinolin-4-yl)benzenesulfonamide)] belongs 0.03 ×10⁻⁶ cm/s; to `CN1Cc2c(Cl)cc(Cl)cc2C(c2ccc(S(=O)(=O)Nc3ccc(CP(=O)(O)O)cc3)cc2)C1` (centres unmarked) [Example 13, (4-(4-(6,8-dichloro-2-methyl-1,2,3,4-tetrahydroisoquinolin-4-yl)phenylsulfonamido)phenyl)methylphosphonic acid], 0.3 ×10⁻⁶ cm/s.
The same measure, in the same setting: to `CN1Cc2c(Cl)cc(Cl)cc2C(c2ccc(NC(=O)NCP(=O)(O)O)cc2)C1` (centres unmarked) [Example 38, (3-(4-(6,8-dichloro-2-methyl-1,2,3,4-tetrahydroisoquinolin-4-yl)phenyl)ureido)methylphosphonic acid] belongs 0.1 ×10⁻⁶ cm/s.
Same read-out and setting: next, `C/C(=C\c1cc(F)c(Oc2ccc(S(=O)(=O)N(CC(=O)O)CP(=O)(O)O)cc2)c(F)c1)C(=O)N=C(N)N` [Example 57, (E)-2-(4-(4-(3-(diaminomethyleneamino)-2-methyl-3-oxoprop-1-enyl)-2,6-difluorophenoxy)-N-(phosphonomethyl)phenylsulfonamido)acetic acid]: 1.65 ×10⁻⁶ cm/s; `CN1Cc2c(Cl)cc(Cl)cc2C(c2cccc(S(=O)(=O)NCCN(CCNS(=O)(=O)c3cccc(C4CN(C)Cc5c(Cl)cc(Cl)cc54)c3)CCNS(=O)(=O)c3cccc(C4CN(C)Cc5c(Cl)cc(Cl)cc54)c3)c2)C1` (centres unmarked) [Example 16, N,N′,N″-(2,2′,2″-nitrilotris(ethane-2,1-diyl))tris(3-(6,8-dichloro-2-methyl-1,2,3,4-tetrahydroisoquinolin-4-yl)benzenesulfonamide)]: less than 0.02 ×10⁻⁶ cm/s.
In data set [1], `C/C(=C\c1cc(F)c(Oc2ccc(S(=O)(=O)Nc3ccc(P(=O)(O)O)cc3)cc2)c(F)c1)C(=O)N=C(N)N` [Example 51, (E)-4-(4-(4-(3-(diaminomethyleneamino)-2-methyl-3-oxoprop-1-enyl)-2,6-difluorophenoxy)phenylsulfonamido)phenylphosphonic acid] displayed a Papp A→B at 3 h, 20 uM of 0.2 ×10⁻⁶ cm/s.
The compound `C/C(=C\c1cc(F)c(Oc2ccc(S(=O)(=O)NCCOCCOCCOCCNS(=O)(=O)c3ccc(Oc4c(F)cc(/C=C(\C)C(=O)N=C(N)N)cc4F)cc3)cc2)c(F)c1)C(=O)N=C(N)N` [Example 44, N,N′-(2,2′-(2,2′-oxybis(ethane-2,1-diyl)bis(oxy))bis(ethane-2,1-diyl))bis[(E)-N-(diaminomethylene)-3-(3,5-difluoro-4-(4-sulfamoylphenoxy)phenyl)-2-methylacrylamide]] yielded a Papp A→B at 3 h, 20 uM in data set [1] of 0.1 ×10⁻⁶ cm/s.
On the same count and under the same terms, next, `CN1Cc2c(Cl)cc(Cl)cc2C(c2ccc(S(=O)(=O)NCCCCCCCCCCCCNS(=O)(=O)c3ccc(C4CN(C)Cc5c(Cl)cc(Cl)cc54)cc3)cc2)C1` (centres unmarked) [Example 23, N,N′-(dodecane-1,12-diyl)bis(4-(6,8-dichloro-2-methyl-1,2,3,4-tetrahydroisoquinolin-4-yl)benzenesulfonamide)]: less than 0.04 ×10⁻⁶ cm/s.
The same measure, in the same setting: to `NC(N)=Nc1nc(-c2cccc(N3CCN(CCCC(=O)O)CC3)c2)c2cc(Cl)ccc2n1` [Example 70, 4-(4-(3-(6-chloro-2-(diaminomethyleneamino)quinazolin-4-yl)phenyl)piperazin-1-yl)butanoic acid] belongs 0.4 ×10⁻⁶ cm/s.
Same read-out and setting: to `C/C(=C\c1cc(F)c(Oc2ccc(S(=O)(=O)Nc3ccc(CP(=O)(O)O)cc3)cc2)c(F)c1)C(=O)N=C(N)N` [Example 53, (E)-4-(4-(4-(3-(diaminomethyleneamino)-2-methyl-3-oxoprop-1-enyl)-2,6-difluorophenoxy)phenylsulfonamido)benzylphosphonic acid] belongs 1.6 ×10⁻⁶ cm/s.
With `CN1Cc2c(Cl)cc(Cl)cc2C(c2ccc(S(=O)(=O)NCc3ccc(CP(=O)(O)O)cc3)cc2)C1` (centres unmarked) [Example 14, (4-((4-(6,8-dichloro-2-methyl-1,2,3,4-tetrahydroisoquinolin-4-yl)phenylsulfonamido)methyl)phenyl) methylphosphonic acid], in data set [1], the Papp A→B at 3 h, 20 uM was 0.4 ×10⁻⁶ cm/s.
On the same count and under the same terms, next, `CN1Cc2c(Cl)cc(Cl)cc2C(c2cccc(S(=O)(=O)NCCCS(=O)(=O)O)c2)C1` (centres unmarked) [Example 7, 3-(3-(6,8-dichloro-2-methyl-1,2,3,4-tetrahydroisoquinolin-4-yl)phenylsulfonamido)propane-1-sulfonic acid]: 0.5 ×10⁻⁶ cm/s; `CN1Cc2c(Cl)cc(Cl)cc2C(c2ccc(S(=O)(=O)NCc3ccc(CNS(=O)(=O)c4ccc(C5CN(C)Cc6c(Cl)cc(Cl)cc65)cc4)cc3)cc2)C1` (centres unmarked) [Example 26, N,N′-(1,4-phenylenebis(methylene))bis(4-(6,8-dichloro-2-methyl-1,2,3,4-tetrahydroisoquinolin-4-yl)benzenesulfonamide)]: less than 0.02 ×10⁻⁶ cm/s; `CN1Cc2c(Cl)cc(Cl)cc2C(c2cccc(S(=O)(=O)N(CC(=O)O)CP(=O)(O)O)c2)C1` (centres unmarked) [Example 8, 2-(3-(6,8-dichloro-2-methyl-1,2,3,4-tetrahydroisoquinolin-4-yl)-N-(phosphonomethyl)phenylsulfonamido)acetic acid]: 0.2 ×10⁻⁶ cm/s.
Same read-out and setting: to `CN1Cc2c(Cl)cc(Cl)cc2C(c2cccc(S(=O)(=O)Nc3ccc(CP(=O)(O)O)cc3)c2)C1` (centres unmarked) [Example 3, 4-(3-(6,8-dichloro-2-methyl-1,2,3,4-tetrahydroisoquinolin-4-yl)phenylsulfonamido)benzylphosphonic acid] belongs 0.8 ×10⁻⁶ cm/s.
`COCCNC(=O)NS(=O)(=O)c1ccc(Oc2c(F)cc(/C=C(\C)C(=O)N=C(N)N)cc2F)cc1` [Example 58, (E)-N-(diaminomethylene)-3-(3,5-difluoro-4-(4-(N-(2-methoxyethylcarbamoyl)sulfamoyl)phenoxy)phenyl)-2-methylacrylamide] gave a Papp A→B at 3 h, 20 uM in data set [1] of 0.2 ×10⁻⁶ cm/s.
On the same count and under the same terms, next, `CCNC(=O)NS(=O)(=O)c1ccc(Oc2c(F)cc(/C=C(\C)C(=O)N=C(N)N)cc2F)cc1` [Example 74]: 0.45 ×10⁻⁶ cm/s; `CN1Cc2c(Cl)cc(Cl)cc2C(c2ccc(S(=O)(=O)N(CCC(=O)O)CCC(=O)O)cc2)C1` (centres unmarked) [Example 15, 3,3′-(4-(6,8-dichloro-2-methyl-1,2,3,4-tetrahydroisoquinolin-4-yl)phenylsulfonylazanediyl)dipropanoic acid]: 0.05 ×10⁻⁶ cm/s; `C/C(=C\c1cc(F)c(Oc2ccc(S(=O)(=O)NC(CC(=O)O)C(=O)O)cc2)c(F)c1)C(=O)N=C(N)N` (centres unmarked) [Example 59, (E)-2-(4-(4-(3-(diaminomethyleneamino)-2-methyl-3-oxoprop-1-enyl)-2,6-difluorophenoxy)phenylsulfonamido)succinic acid]: 0.1 ×10⁻⁶ cm/s.
As usually defined, the AUC is the area under the concentration-time curve, a measure of exposure. Lower therefore signals less exposure. In general, Cmax refers to the peak of the concentration-time curve. In data set [2], `CN1Cc2c(Cl)cc(Cl)cc2C(c2cccc(S(=O)(=O)NCCOCCOCCOCCNC(=O)c3ccc(C(=O)NCCOCCOCCOCCNS(=O)(=O)c4cccc(C5CN(C)Cc6c(Cl)cc(Cl)cc65)c4)cc3)c2)C1` (centres unmarked) [Example 216, N1,N4-bis(2-(2-(2-(2-(3-(6,8-dichloro-2-methyl-1,2,3,4-tetrahydroisoquinolin-4-yl)phenylsulfonamido)ethoxy)ethoxy)ethoxy)ethyl)terephthalamide] gave an AUC of less than 8.3 ng·h/mL and a Cmax of less than 4 ng/mL. Also, the IC50 on rat NHE-3 (OK cells expressing rat NHE-3, 0-30 uM test compound, 5 uM EIPA, read-out: rat NHE-3 Average pIC50 (converted)) is less than 100 nM.
In data set [2], `CN1Cc2c(Cl)cc(Cl)cc2C(c2cccc(S(=O)(=O)NCCOCCOCCOCCNC(=O)c3cccc(C(=O)NCCOCCOCCOCCNS(=O)(=O)c4cccc(C5CN(C)Cc6c(Cl)cc(Cl)cc65)c4)c3)c2)C1` (centres unmarked) [Example 228, N1,N3-bis(2-(2-(2-(2-(3-(6,8-dichloro-2-methyl-1,2,3,4-tetrahydroisoquinolin-4-yl)phenylsulfonamido)ethoxy)ethoxy)ethoxy)-ethyl)isophthalamide] registered an AUC of less than 5 ng·h/mL and a Cmax of less than 5 ng/mL. For the same compound, the “rat NHE-3 Average pIC50” value at rat NHE-3 (setting [3]) lay in the range of 6 to 7.
On the same counts, the results for `CN1Cc2c(Cl)cc(Cl)cc2C(c2ccc(S(=O)(=O)NCCOCCOCCNC(=O)C(O)C(O)C(=O)NCCOCCOCCNS(=O)(=O)c3ccc(C4CN(C)Cc5c(Cl)cc(Cl)cc54)cc3)cc2)C1` (centres unmarked) [Example 205, N1,N4-bis(2-(2-(2-(4-(6,8-dichloro-2-methyl-1,2,3,4-tetrahydroisoquinolin-4-yl)phenylsulfonamido)ethoxy)ethoxy)ethyl)-2,3-dihydroxysuccinamide] are less than 2 ng·h/mL, less than 2 ng/mL and more than 7.
`CN1Cc2c(Cl)cc(Cl)cc2C(c2ccc(S(=O)(=O)NCCOCCOCCNC(=O)c3ccc(C(=O)NCCOCCOCCNS(=O)(=O)c4ccc(C5CN(C)Cc6c(Cl)cc(Cl)cc65)cc4)cc3)cc2)C1` (centres unmarked) [Example 231, N1,N4-bis(2-(2-(2-(4-(6,8-dichloro-2-methyl-1,2,3,4-tetrahydroisoquinolin-4-yl)phenylsulfonamido)ethoxy)ethoxy)ethyl)terephthalamide]: in data set [2], the AUC is less than 3 ng·h/mL and the Cmax was less than 2.5 ng/mL. The “rat NHE-3 Average pIC50” value at rat NHE-3 is less than 5.0.
